Assay type in all cases: in vivo
The subject of test [1] is tobacco budworm (Heliothis virescens). As to the kind of experiment: Action on tobacco budworm (Heliothis virescens), 96-well microtiter plate diet test. The settings on record: 120 h, egg and larval mortality after 5 days, read-out: mortality in comparison with untreated controls. The method, then: For evaluating control of tobacco budworm (Helliothis virescens) the test unit consisted of 96-well-microtiter plates containing an insect diet and 15-25 H. virescens eggs.
The compounds were formulated using a solution containing 75% v/v water and 25% v/v DMSO. Different concentrations of formulated compounds were sprayed onto the insect diet at 10 μl, using a custom built micro atomizer, at two replications.
After application, microtiter plates were incubated at about 28±1° C. and about 80±5% relative humidity for 5 days. Egg and larval mortality was then visually assessed.

Test [2] deals with Diamond Back Moth (Plutella xylostella). The experiment in a line: Action on diamond back moth (Plutella xylostella), cabbage leaf dip. As to conditions: foliar, 3rd instar larvae on dipped cabbage leaves, 72 hours after treatment, read-out: mortality in comparison with untreated controls. How it is done: The active compound is dissolved at the desired concentration in a mixture of 1:1 (vol:vol) distilled water:acetone. Surfactant (Kinetic® HV) is added at a rate of 0.01% (vol/vol).The test solution is prepared at the day of use.
Leaves of cabbage were dipped in test solution and air-dried. Treated leaves were placed in petri dishes lined with moist filter paper and inoculated with ten 3rd instar larvae. Mortality was recorded 72 hours after treatment. Feeding damages were also recorded using a scale of 0-100%.

Test [3] concerns Southern Armyworm (Spodoptera eridania), 2nd Instar Larvae. The experiment in a line: Action on southern armyworm (Spodoptera eridania), 2nd instar larvae, sprayed lima bean plants. The settings on record: 96 h, 2nd instar larvae on lima bean, 4 days after treatment, read-out: mortality in comparison with untreated controls. How it is done: The active compounds were formulated by a Tecan liquid handler in 100% cyclohexanone as a 10,000 ppm solution supplied in tubes. The 10,000 ppm solution was serially diluted in 100% cyclohexanone to make interim solutions. These served as stock solutions for which final dilutions were made by the Tecan in 50% acetone:50% water (v/v) into 10 or 20 ml glass vials. A nonionic surfactant (Kinetic®) was included in the solution at a volume of 0.01% (v/v). The vials were then inserted into an automated electrostatic sprayer equipped with an atomizing nozzle for application to plants/insects.
Lima bean plants (variety Sieva) were grown 2 plants to a pot and selected for treatment at the 1st true leaf stage. Test solutions were sprayed onto the foliage by an automated electrostatic plant sprayer equipped with an atomizing spray nozzle. The plants were dried in the sprayer fume hood and then removed from the sprayer. Each pot was placed into perforated plastic bags with a zip closure. About 10 to 11 armyworm larvae were placed into the bag and the bags zipped closed. Test plants were maintained in a growth room at about 250C and about 20-40% relative humidity for 4 days, avoiding direct exposure to fluorescent light (24 hour photoperiod) to prevent trapping of heat inside the bags. Mortality and reduced feeding were assessed 4 days after treatment, compared to untreated control plants.

The test system of test [4] is yellow fever mosquito (Aedes aegypti). The experiment in a line: whole plant or invertebrate. As to conditions: 48 h, larval mortality visually assessed after 2 days, read-out: mortality in comparison with untreated controls. The method, then: For evaluating control of yellow fever mosquito (Aedes aegypti) the test unit consisted of 96-well-microtiter plates containing 200 μl of tap water per well and 5-15 freshly hatched A. aegypti larvae.
The active compounds were formulated using a solution containing 75% (v/v) water and 25% (v/v) DMSO. Different concentrations of formulated compounds or mixtures were sprayed onto the insect diet at 2.5 μl, using a custom built micro atomizer, at two replications.
After application, microtiter plates were incubated at 28±1° C., 80±5% RH for 2 days. Larval mortality was then visually assessed.

The test system of test [5] is boll weevil (Anthonomus grandis). As to the kind of experiment: Action on boll weevil (Anthonomus grandis), 96-well microtiter plate diet test. The settings on record: 120 h, egg and larval mortality after 5 days, read-out: mortality in comparison with untreated controls. How it is done: For evaluating control of boll weevil (Anthonomus grandis) the test unit consisted of 96-well-microtiter plates containing an insect diet and 5-10 A. grandis eggs.
The compounds were formulated using a solution containing 75% v/v water and 25% v/v DMSO. Different concentrations of formulated compounds were sprayed onto the insect diet at 5 μl, using a custom built micro atomizer, at two replications.
After application, microtiter plates were incubated at about 25±1° C. and about 75±5% relative humidity for 5 days. Egg and larval mortality was then visually assessed.

Test [6] concerns Orchid thrips (Dichromothrips corbetti). As to the kind of experiment: Action on orchid thrips (Dichromothrips corbetti), floral-immersion technique. As to conditions: adult thrips, mortality 72 hours after treatment, read-out: mortality in comparison with untreated controls. The method, then:
Dichromothrips corbetti adults used for bioassay were obtained from a colony maintained continuously under laboratory conditions. For testing purposes, the test compound is diluted in a 1:1 mixture of acetone:water (vol:vol), plus Kinetic® HV at a rate of 0.01% v/v.
Thrips potency of each compound was evaluated by using a floral-immersion technique. All petals of individual, intact orchid flowers were dipped into treatment solution and allowed to dry in Petri dishes. Treated petals were placed into individual re-sealable plastic along with about 20 adult thrips. All test arenas were held under continuous light and a temperature of about 28° C. for duration of the assay. After 3 days, the numbers of live thrips were counted on each petal. The percent mortality was recorded 72 hours after treatment.

For `CC(C)c1ccccc1N1C(=O)CS/C1=N\N=C\C(=O)N(C)c1cnc(N(C)c2ccc(OC(F)(F)F)cc2)nc1` [Compound C-10, (2E)-2-[(Z)-[3-(2-isopropylphenyl)-4-oxo-thiazolidin-2-ylidene]hydrazono]-N-methyl-N-[2-[N-methyl-4-(trifluoromethoxy)anilino]pyrimidin-5-yl]acetamide], the mortality (in general, the share of the test organisms that died) at 800 ppm in test [1] was no less than 75%. Also, the mortality at 500 ppm in test [2] was no less than 75%. Also, the mortality at 300 ppm in test [3] was no less than 75%.
As for `CC(C)c1ccccc1NC(=S)N/N=C/COc1cnc(N(C)c2ccc(OC(F)(F)F)cc2)nc1` [Compound C-18, 1-(2-isopropylphenyl)-3-[(E)-2-[2-[N-methyl-4-(trifluoromethoxy)anilino]pyrimidin-5-yl]oxyethylideneamino]thiourea], the mortality at 500 ppm in test [2] is no less than 75%. Moreover, in test [3], the mortality at 300 ppm was no less than 75%.
For `CC(/C=N/NC(=S)Nc1c(C)cccc1C)=C\c1cnc(Nc2ccc(OC(F)(F)F)cc2)nc1` [Compound C-2, 1-(2,6-dimethylphenyl)-3-[(E)-[(E)-2-methyl-3-[2-[4-(trifluoromethoxy)anilino]pyrimidin-5-yl]prop-2-enylidene]amino]thiourea], the mortality at 800 ppm in test [4], in test [5] and in test [1] was no less than 75% throughout. In addition, the mortality at 500 ppm in test [2] is no less than 75%. For the same molecule, the mortality at 300 ppm in test [3] was no less than 75%.
`CC(/C=N/NC(=S)Nc1ccccc1C(C)C)Oc1cnc(N(C)c2ccc(OC(F)(F)F)cc2)nc1` (stereo not shown) [Compound C-20, 1-(2-isopropylphenyl)-3-[(E)-2-[2-[N-methyl-4-(trifluoromethoxy)anilino]pyrimidin-5-yl]oxypropylideneamino]thiourea]: the mortality at 500 ppm in test [2] is no less than 75%.
Turning to `CC(C=N/N=C1\SCC(=O)N1c1c(C)cccc1C)=Cc1cnc(Nc2ccc(OC(F)(F)F)cc2)nc1` [Compound C-4, (2Z)-3-(2,6-dimethylphenyl)-2-[(2-methyl-3-[2-[4-(trifluoromethoxy)anilino]pyrimidin-5-yl]prop-2-enylidene]hydrazono]thiazolidin-4-one], the mortality at 800 ppm in test [4], in test [5] and in test [1] was no less than 75% in each case. For the same molecule, in test [2], the mortality at 500 ppm is no less than 75%. Besides, the mortality at 300 ppm in test [3] was no less than 75%.
On to `Cc1cc(N(C)c2ccc(OC(F)(F)F)cc2)nc(C)c1OC/C=N/NC(=S)Nc1ccccc1C(C)C` [Compound C-30, 1-[(E)-2-[[2,4-dimethyl-6-[N-methyl-4-(trifluoromethoxy)anilino]-3-pyridyl]oxy]ethylideneamino]-3-(2-isopropylphenyl)thiourea], for which, in test [1], the mortality at 800 ppm is no less than 75%. Further, the mortality at 500 ppm in test [2] was no less than 75%.
With `Cc1nc(N(C)c2ccc(OC(F)(F)F)cc2)ncc1CC(C)/C=N/N=C1\SCC(=O)N1c1ccccc1C(C)C` (stereo not shown) [Compound C-24, (2Z)-3-(2-isopropylphenyl)-2-[(E)-[2-methyl-3-[4-methyl-2-[N-methyl-4-(trifluoromethoxy)anilino]pyrimidin-5-yl]propylidene]hydrazono]thiazolidin-4-one], the mortality at 800 ppm in test [1] was no less than 75%. In test [2], the mortality at 500 ppm is no less than 75%.
Consider `CC(C)c1ccccc1N1C(=O)CS/C1=N\N=C\COc1cnc(N(C)c2ccc(OC(F)(F)F)cc2)nc1` [Compound C-19, (2Z)-3-(2-isopropylphenyl)-2-[(E)-2-[2-[N-methyl-4-(trifluoromethoxy)anilino]pyrimidin-5-yl]oxyethylidenehydrazono]thiazolidin-4-one], for which the mortality at 500 ppm in test [2] is no less than 75%. Further, in test [3], the mortality at 300 ppm is no less than 75%.
On to `CC(C)c1ccccc1N1C(=O)CS/C1=N\N=C\COc1ccc(N(C)c2ccc(OC(F)(F)F)cc2)nn1` [Compound C-29, (2Z)-3-(2-isopropylphenyl)-2-[(E)-2-[6-[N-methyl-4-(trifluoromethoxy)anilino]pyridazin-3-yl]oxyethylidenehydrazono]thiazolidin-4-one], for which, in test [2], the mortality at 500 ppm was no less than 75%.
Take `Cc1cc(N(C)c2ccc(OC(F)(F)F)cc2)nc(C)c1OC/C=N/N=C1\SCC(=O)N1c1ccccc1C(C)C` [Compound C-31, (2Z)-2-[(E)-2-[[2,4-dimethyl-6-[N-methyl-4-(trifluoromethoxy)anilino]-3-pyridyl]oxy]ethylidenehydrazono]-3-(2-isopropylphenyl)thiazolidin-4-one]: the mortality at 800 ppm in test [4], in test [5] and in test [1] was no less than 75% throughout. The mortality at 500 ppm in test [2] was no less than 75%. Besides, the mortality at 300 ppm in test [3] was no less than 75%.
Regarding `CC(/C=N/N=C1\SCC(=O)N1c1ccccc1C(C)C)Oc1cnc(N(C)c2ccc(OC(F)(F)F)cc2)nc1` (stereo not shown) [Compound C-21, (2Z)-3-(2-isopropylphenyl)-2-[(E)-2-[2-[N-methyl-4-(trifluoromethoxy)anilino]pyrimidin-5-yl]oxypropylidenehydrazono]thiazolidin-4-one], in test [2], the mortality at 500 ppm is no less than 75%.
Take `CC(C)c1ccccc1N1CC(=O)N(/N=C/C=C/c2cnc(N(C)c3ccc(OC(F)(F)F)cc3)nc2)C1=O` [Compound C-14, 1-(2-isopropylphenyl)-3-[(E)-[(E)-3-[2-[N-methyl-4-(trifluoromethoxy)anilino]pyrimidin-5-yl]prop-2-enylidene]amino]imidazolidine-2,4-dione]: the mortality at 500 ppm in test [6] and in test [2] was no less than 75% throughout. Further, the mortality at 800 ppm in test [5] and in test [1] was no less than 75% each time.
In the case of `CC(C)c1ccccc1N1C(=O)CS/C1=N\N=C\C(=O)Nc1cnc(N(C)c2ccc(OC(F)(F)F)cc2)nc1` [Compound C-11, (2E)-2-[(Z)-[3-(2-isopropylphenyl)-4-oxo-thiazolidin-2-ylidene]hydrazono]-N-[2-[N-methyl-4-(trifluoromethoxy)anilino]pyrimidin-5-yl]acetamide], the mortality at 800 ppm in test [1] was no less than 75%. Moreover, the mortality at 500 ppm in test [2] is no less than 75%. Moreover, the mortality at 300 ppm in test [3] is no less than 75%.
In the case of `CC(/C=N/N=C1\SCC(=O)N1c1ccccc1C(C)C)Oc1ccc(N(C)c2ccc(OC(F)(F)F)cc2)nn1` (stereo not shown) [Compound C-28, (2Z)-3-(2-isopropylphenyl)-2-[(E)-2-[6-[N-methyl-4-(trifluoromethoxy)anilino]pyridazin-3-yl]oxypropylidenehydrazono]thiazolidin-4-one], the mortality at 500 ppm in test [2] was no less than 75%.
Consider `CC(C)c1ccccc1NC(=S)N/N=C/C(=O)Nc1cnc(N(C)c2ccc(OC(F)(F)F)cc2)nc1` [Compound C-13, (2E)-2-[(2-isopropylphenyl)carbamothioylhydrazono]-N-[2-[N-methyl-4-(trifluoromethoxy)anilino]pyrimidin-5-yl]acetamide], for which the mortality at 800 ppm in test [1] was no less than 75%. Further, the mortality at 500 ppm in test [2] is no less than 75%. The mortality at 300 ppm in test [3] was no less than 75%.
